Data reported in EPA's aquatic toxicity sets.

The compounds below were run on Pimephales promelas (assay: 96 h LC50 (-log10 mol/L); higher = more toxic).

SMILES | 96 h LC50 (-log10 mol/L)
Cc1cc2cccc(C)c2cc1C | 4.42
O=C(Oc1ccccc1)c1ccccc1O | 5.28
CC1=CC[C@@H]2C[C@H]1C2(C)C | 5.69
Nc1ccccc1C(=O)c1ccc(Cl)cc1 | 5.04
O=CN(c1ccccc1)c1ccccc1 | 3.81
Cc1cccnc1 | 2.81
CCNc1nc(NC(C)(C)C)nc(OC)n1 | 3.66
CCOC(N)=O | 1.23
CCN(CC)N=O | 2.12
CC1(C)[C@@H]2CC[C@@]1(C)C(=O)C2 | 3.14
CCOC(CN(C)CC(OCC)OCC)OCC | 2.62
CNC(=O)Oc1ccc(N(C)C)c(C)c1 | 5.03
OCC(F)(F)F | 2.92
CCCCCCCCS(=O)C(C)Cc1ccc2c(c1)OCO2 (stereo unspecified) | 5.64
CC(O)(c1ccc(Cl)cc1)c1ccc(Cl)cc1 | 5.25
COP(=O)(OC)Oc1nc(Cl)c(Cl)cc1Cl | 8.16
OC1COC(O)C(O)C1O (stereo unspecified) | 0.6
CC(O)C#N (stereo unspecified) | 4.9
CC(C)(C)c1ccc(C(N)=O)cc1 | 3.75
O=CC=O | 2.43
CC=CC=CC | 3.61
CCCCCCCCCCc1ccc(N)cc1 | 6.57
C#CC1(O)CCCCC1 | 2.69
c1ccc(-c2cccc(-c3ccccc3)n2)cc1 | 6.04
CC(C)(C)CC(C)(C)N | 3.72

SMILES | 96 h LC50 (-log10 mol/L)
O=C1C2CC3CC(C2)CC1C3 | 3.39
CCN(CC)CCCC(C)=O | 2.67
CC1(C)CCC(C)(C)O1 | 2.88
CC(C)=CCC/C(C)=C/CO | 4.59
ClC1(Cl)C2(Cl)C3(Cl)C4(Cl)C(Cl)(Cl)C5(Cl)C3(Cl)C1(Cl)C5(Cl)C24Cl (stereo unspecified) | 3.62
C1CN2CCN1CC2 | 1.81
CCCCCCCC/C=C\CCCCCCCC(=O)O | 3.14
CC(C)Oc1cccc(NC(=O)c2ccccc2C(F)(F)F)c1 | 4.83
ClCc1ccc(CCl)cc1 | 6.65
NC(=O)c1cccc(Br)c1 | 3.33
CCOC(=O)[C@H](O)[C@@H](O)C(=O)OCC | 2.5
Cc1ncc[nH]1 | 2.46
C=C(C)C(=O)OCCOCC | 3.76
COC(=O)c1ccc(O)cc1O | 3.6
COc1ccccc1[N+](=O)[O-] | 2.9
CC12CCC(CC1)C(C)(C)O2 | 3.18
CCCCOC(=O)c1ccc(C(=O)OCCCC)cc1 | 5.67
CCOC(=O)C(C)Oc1ccc(Oc2nc3ccc(Cl)cc3o2)cc1 (stereo unspecified) | 4.71
BrCC1CCCCO1 (stereo unspecified) | 2.94
N#Cc1cccc(C(F)(F)F)c1 | 3.56
OC(C(F)(F)F)C(F)(F)F | 2.84
CC(C)(c1cc(Cl)c(O)c(Cl)c1)c1cc(Cl)c(O)c(Cl)c1 | 5.44
CCN(CC)c1ccc(C=O)cc1 | 3.87
CCCSSCCC | 4.76
Clc1cc(Cl)cc(C2(CC(Cl)(Cl)Cl)CO2)c1 (stereo unspecified) | 5.38

SMILES | 96 h LC50 (-log10 mol/L)
CC1(C)NC(=O)NC1=O | 0.89
CCNc1cccc(C)c1 | 3.44
CC(C)(O)C(Cl)(Cl)Cl | 3.12
C=C(C)[C@H]1CC=C(C)CC1 | 5.28
O=S(c1ccccc1)c1ccccc1 | 3.37
CCOP(=O)(OCC)OP(=O)(OCC)OCC | 5.35
CCC(C)n1c(=O)[nH]c(C)c(Br)c1=O (stereo unspecified) | 3.15
CCN(CCO)c1cccc(C)c1 | 3.53
Clc1ccc(C(c2ccc(Cl)cc2)C(Cl)Cl)cc1 | 4.86
CC(=O)c1ccc(Cl)c([N+](=O)[O-])c1 | 4.56
C1COCCO1 | 0.931
CC(C)(C)SSC(C)(C)C | 5.12
CN(C)C(=O)Nc1ccc(Cl)c(Cl)c1 | 4.21
CN(C)N | 3.88
CCCCOCCOC(=O)C(C)Oc1cc(Cl)c(Cl)cc1Cl (stereo unspecified) | 5.57
COCOC | 1.04
O=S1OCC2C(CO1)C1(Cl)C(Cl)=C(Cl)C2(Cl)C1(Cl)Cl (stereo unspecified) | 8.48
CC(C)[C@@H]1CC[C@@H](C)C[C@H]1O | 3.92
C#CCC(C)O (stereo unspecified) | 3.38
COC(=O)c1ccc(C(=O)OC)c(N)c1 | 4.37
CCNS(=O)(=O)C(F)(F)C(F)(F)C(F)(F)C(F)(F)C(F)(F)C(F)(F)C(F)(F)C(F)(F)F | 6.45
O=c1cccc(Cl)[nH]1 | 2.78
CCOC(=O)[C@H](C)N(C(=O)c1ccccc1)c1ccc(Cl)c(Cl)c1 | 5.68
CC(=O)Br | 3.48
CC(C)(C)CCN | 2.23

SMILES | 96 h LC50 (-log10 mol/L)
CC(C)(C)c1ccc(CSc2cnn(C(C)(C)C)c(=O)c2Cl)cc1 | 8.2
Cc1c([N+](=O)[O-])ccc([N+](=O)[O-])c1N | 5.37
Cc1c([N+](=O)[O-])ccc(N)c1[N+](=O)[O-] | 4.25
ClC1=C(Cl)[C@]2(Cl)C3C(Cl)C(Cl)CC3[C@@]1(Cl)C2(Cl)Cl (stereo partly specified) | 6.82
CCNCCO | 1.78
C=CCC1=C(C)[C@@H](OC(=O)[C@@H]2[C@@H](C=C(C)C)C2(C)C)CC1=O | 6.67
CC(C)OC(C)C | 2.11
NCCCN1CCN(CCCN)CC1 | 1.81
CCSCCCCSCC | 4.47
CCCCN(C=O)CCCC | 3.25
CCc1cccc(C)c1N(C(=O)CCl)C(C)COC (stereo unspecified) | 4.54
CNC(=O)ON=C(SC)C(=O)N(C)C | 4.51
C1CCOC1 | 1.52
OCCOCCO | 0.15
CCOC(=O)CC(S)C(=O)OCC (stereo unspecified) | 3.77
CCCCCC(C)=O | 2.94
Brc1ccccc1 | 4.45
CCOP(=S)(OCC)SC1OCCOC1SP(=S)(OCC)OCC (stereo unspecified) | 4.66
Cc1ccc(N(C)C)cc1 | 3.42
CCCCN(CC)c1c([N+](=O)[O-])cc(C(F)(F)F)cc1[N+](=O)[O-] | 6.53
CC1CNCCN1 (stereo unspecified) | 1.65
NNC(N)=S | 3.64
COc1cc(C=O)cc(Br)c1O | 3.59
COc1ccc(C(C)=O)c(OC)c1OC | 3.02
O=C(O)c1c(F)cccc1F | 3.36

SMILES | 96 h LC50 (-log10 mol/L)
CCC(C)C=O (stereo unspecified) | 3.94
CC(C)(C)c1ccc(Oc2cccc(C=O)c2)cc1 | 5.84
Nc1ccc(Br)cn1 | 2.99
CN(C)C(=O)C(c1ccccc1)c1ccccc1 | 3.7
CC(C)(O)C(F)(F)C(F)F | 2.44
O=[N+]([O-])C(CO)(CO)CO | 2.73
O=S(=O)([O-])c1ccc[n+](Cc2ccccc2)c1 | 2.02
C=C(Cl)Cl | 2.86
ClCCCCCCl | 3.75
CCOP(=S)(OCC)Oc1nc(Cl)c(Cl)cc1Cl | 6.36
O=P(c1ccccc1)(c1ccccc1)c1ccccc1 | 3.71
CCCSCCC | 3.74
O=Cc1cc([N+](=O)[O-])ccc1Cl | 4.67
N#Cc1c(Cl)cccc1Cl | 4.42
COCCCNCc1cc(OC)c(OC)c(OC)c1 | 3.3
CC1=CCC(=C(C)C)CC1 | 5.05
COC(=O)C1C(C(=O)OC)C2(Cl)C(Cl)=C(Cl)C1(Cl)C2(Cl)Cl (stereo unspecified) | 5.38
Cl[C@@H]1CCCC[C@H]1Cl | 3.92
CCOP(=S)(Oc1ccc([N+](=O)[O-])cc1)c1ccccc1 (stereo unspecified) | 6.21
CC(C)SSC(C)C | 4.26
O=Cc1cccc(Oc2ccc(Cl)c(Cl)c2)c1 | 5.95
CC(N)CN (stereo unspecified) | 1.82
ClCCCCCl | 3.39
Cc1ccc([N+](=O)[O-])c(N)c1 | 3.79
CC(=O)O | 2.86

SMILES | 96 h LC50 (-log10 mol/L)
Cc1ccc(Cl)c(Cl)c1 | 4.74
COc1ccc(C(c2ccc(OC)cc2)C(Cl)(Cl)Cl)cc1 | 7.61
C=C(C)C(=C)C | 4.08
CC1CNCC(C)O1 (stereo unspecified) | 2.47
c1cc[n+]2c(c1)-c1cccc[n+]1CC2 | 4.12
C=C(CCl)CCl | 5.82
CCOC(=O)c1ccccc1O | 3.92
CCOC(=O)C(C)N(C(=O)c1ccccc1)c1ccc(Cl)c(Cl)c1 (stereo unspecified) | 5.81
ON=C1CCCCC1 | 2.74
CC(=O)Nc1ccccc1O | 3.66
C1N2CN3CN1CN(C2)C3 | 0.449
COP(=S)(OC)Oc1ccc(Sc2ccc(OP(=S)(OC)OC)cc2)cc1 | 4.14
CC(C)C(C(=O)OC(C#N)c1cccc(Oc2ccccc2)c1)c1ccc(OC(F)F)cc1 (stereo unspecified) | 8.98
CCOC(=O)/C=C\C(=O)OCC | 3.98
C=CC(C)(O)CC/C=C(\C)CCC=C(C)C (stereo unspecified) | 5.19
CCC(C)C(C)C=O (stereo unspecified) | 3.85
O[C@H]1C[C@@H]2CC[C@H]1C2 | 2.69
C1OCOCO1 | 1.18
Oc1ccc(Cl)cc1 | 4.46
Nc1ccc(F)c(C(F)(F)F)c1 | 3.77
CCOP(=S)(OCC)Oc1ccc(S(C)=O)cc1 (stereo unspecified) | 3.85
